Measurements as given in patent US12012628B2, “Method to elevate the amount of steviol glycosides remained in the recrystallization mother liquor of Stevia extract” (Jiangnan University, priority 2018, dated 2024).
Where two headings read alike, the source gives them in different places.

Key:
[1] = tested on: lactase from Kluyveromyces fragilis (ATCC 8554); experiment: Lactase-catalysed hydrolysis of steviol glycosides, HPLC analysis of the reaction mixture; assay type: biochemical
Procedure: A standard curve is drawn with rebaudioside A (HPLC 99%) as a standard sample, concentrations of rebaudioside A, stevioside and rubusoside are figured out through the standard curve of rebaudioside A by means of an analysis and detection method of steviol glycosides in JECFA2016.
A conversion rate calculation formula of stevioside: α=[(C0−Ct)/C0]×100% (1)
(§1) 250 g/L glycoside liquid is prepared with deionized water from Stevia sugar (containing 22% of rebaudioside A, 68% of stevioside and 3% of rebaudioside C in percentages by mass). The lactase freeze-dried powder obtained in Example 1 is added to reach an enzyme concentration of 60 U/g stevioside for reaction at 35° C. for 2 h.
as §1, with “of 150” for “of 60”, “for 24” for “for 2”
100 g/L glycoside liquid is prepared from the Stevia mother liquor glycosides (containing 47% of rebaudioside A, 19% of stevioside and 7% of rebaudioside C in percentages by mass). The lactase freeze-dried powder obtained in Example 1 is added to reach an enzyme concentration of 30 U/g stevioside for reaction at 25° C. for 0.5 h. […] It can be seen that a conversion rate of stevioside will drop at a low temperature, a low enzyme concentration and a short reaction time.
A 200 g/L stevioside solution is prepared by dissolving 20 g of stevioside (97%, HPLC) in 100 mL of deionized water into a reactor. The lactase freeze-dried powder obtained in Example 1 is added to reach an enzyme concentration of 90 U/g stevioside for reaction at 35° C. for 2 h.
The lactase freeze-dried powder obtained in Example 1 is added to a mixed glycoside solution (50% of stevioside and 50% of rebaudioside A) with a solid content of 200 g/L to reach an enzyme concentration of 200 U/g stevioside, stirred at 35° C. for 2 h.
A 10 g/L rebaudioside A solution is prepared by dissolving 1 g of rebaudioside A (99%, HPLC) in 100 mL of deionized water and preheated for 30 min at 30° C. The lactase freeze-dried powder obtained in Example 1 is added to reach an enzyme concentration of 100 U/g rebaudioside A for reaction for 24 h at 30° C.

[2] = n-butyl alcohol/water partition coefficients of steviol glycosides; assay type: physicochemical
Source text: The n-butyl alcohol/water partition coefficients of several major steviol glycosides in the mother liquor glycosides are shown in Table 1. It can be seen in Table 1 that the polarity difference between rebaudioside A and rebaudioside C and rubusoside is far larger than the polarity difference between rebaudioside A and rebaudioside C and stevioside; and thus, after stevioside is converted into rubusoside, rebaudioside A and rebaudioside C can be separated out of a mixture more easily than before.

[3] = biological target: T1, lactase (Maxilact LG 2000) from Kluyveromyces lactis (Kluyveromyces lactis, UniProt P00723); experiment: Hydrolysis of stevioside in Stevia sugar by commercial lactase, HPLC; assay type: biochemical; conditions: Stevia sugar 450 g/L, pH5 buffer, 100 U/g stevioside, 30° C.
T1 construct: purchased Royal DSM Maxilact LG 2000
T1 sequence (P00723 whole entry): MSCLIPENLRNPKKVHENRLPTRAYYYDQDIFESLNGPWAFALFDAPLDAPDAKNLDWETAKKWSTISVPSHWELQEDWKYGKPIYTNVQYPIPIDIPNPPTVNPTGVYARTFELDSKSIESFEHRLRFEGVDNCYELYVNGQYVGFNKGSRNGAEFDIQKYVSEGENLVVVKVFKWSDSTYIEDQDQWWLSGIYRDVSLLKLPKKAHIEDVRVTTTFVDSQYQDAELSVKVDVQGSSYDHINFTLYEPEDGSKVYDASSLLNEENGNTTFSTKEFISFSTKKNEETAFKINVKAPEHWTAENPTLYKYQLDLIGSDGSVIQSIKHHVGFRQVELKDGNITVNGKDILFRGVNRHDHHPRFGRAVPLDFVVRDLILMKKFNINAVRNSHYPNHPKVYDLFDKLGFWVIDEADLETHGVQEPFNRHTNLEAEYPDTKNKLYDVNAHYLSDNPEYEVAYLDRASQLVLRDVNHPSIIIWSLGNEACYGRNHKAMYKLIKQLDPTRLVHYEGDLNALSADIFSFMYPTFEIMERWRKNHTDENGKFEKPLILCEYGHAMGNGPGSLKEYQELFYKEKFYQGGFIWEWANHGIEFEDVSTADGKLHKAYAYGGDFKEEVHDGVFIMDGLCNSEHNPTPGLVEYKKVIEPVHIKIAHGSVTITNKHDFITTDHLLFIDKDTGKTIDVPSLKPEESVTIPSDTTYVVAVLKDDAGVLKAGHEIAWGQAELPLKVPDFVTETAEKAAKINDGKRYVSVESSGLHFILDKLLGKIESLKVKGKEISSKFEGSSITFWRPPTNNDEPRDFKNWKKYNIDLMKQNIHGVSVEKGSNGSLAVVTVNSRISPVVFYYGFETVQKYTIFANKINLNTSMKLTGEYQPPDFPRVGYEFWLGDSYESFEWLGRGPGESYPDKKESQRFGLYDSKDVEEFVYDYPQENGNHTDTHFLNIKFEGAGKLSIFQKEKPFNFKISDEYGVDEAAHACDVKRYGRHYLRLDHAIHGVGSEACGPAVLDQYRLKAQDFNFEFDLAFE
Procedure: 450 g/L glycoside liquid is prepared with a pH5 phosphate-potassium phosphate buffer solution (50 mmol/L) from Stevia sugar (containing 22% of rebaudioside A, 68% of stevioside and 3% of rebaudioside C in percentages by mass). […]

[4] = biological target: lactase from Aspergillus niger (ATCC 9029) (Aspergillus niger, UniProt P29853); experiment: Hydrolysis of stevioside in Stevia sugar by lactase, HPLC; assay type: biochemical; conditions: Stevia sugar 450 g/L, pH5 buffer; 100 U/g stevioside; 30° C., 2 h
lactase from Aspergillus niger (ATCC 9029), sequence (P29853 20-1006): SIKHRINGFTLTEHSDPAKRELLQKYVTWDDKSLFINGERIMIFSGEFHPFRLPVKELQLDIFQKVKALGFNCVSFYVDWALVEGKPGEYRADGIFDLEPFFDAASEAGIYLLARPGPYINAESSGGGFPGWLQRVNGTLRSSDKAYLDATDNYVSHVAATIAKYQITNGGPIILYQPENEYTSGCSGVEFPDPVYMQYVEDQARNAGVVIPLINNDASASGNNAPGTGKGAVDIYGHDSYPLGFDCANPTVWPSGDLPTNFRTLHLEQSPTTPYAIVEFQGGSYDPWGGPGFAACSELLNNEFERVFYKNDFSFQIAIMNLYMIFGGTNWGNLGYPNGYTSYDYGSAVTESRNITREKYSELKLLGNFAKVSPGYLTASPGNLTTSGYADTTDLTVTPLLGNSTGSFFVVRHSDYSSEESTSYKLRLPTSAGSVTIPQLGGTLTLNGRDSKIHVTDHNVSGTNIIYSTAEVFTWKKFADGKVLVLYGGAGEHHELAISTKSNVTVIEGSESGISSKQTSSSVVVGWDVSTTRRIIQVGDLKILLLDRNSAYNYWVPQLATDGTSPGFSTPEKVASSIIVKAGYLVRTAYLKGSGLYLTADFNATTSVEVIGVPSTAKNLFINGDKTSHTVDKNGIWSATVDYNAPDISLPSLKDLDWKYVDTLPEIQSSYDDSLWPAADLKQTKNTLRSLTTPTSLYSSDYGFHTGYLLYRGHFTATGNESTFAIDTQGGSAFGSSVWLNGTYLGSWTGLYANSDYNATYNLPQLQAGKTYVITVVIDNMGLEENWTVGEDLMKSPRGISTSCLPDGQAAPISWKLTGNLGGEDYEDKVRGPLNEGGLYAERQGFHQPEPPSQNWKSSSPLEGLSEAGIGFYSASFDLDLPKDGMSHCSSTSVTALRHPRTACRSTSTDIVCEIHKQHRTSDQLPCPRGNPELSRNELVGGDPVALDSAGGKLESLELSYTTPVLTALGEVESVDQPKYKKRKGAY
Procedure: (§2) 450 g/L glycoside liquid is prepared with a pH5 phosphate-potassium phosphate buffer solution (50 mmol/L) from Stevia sugar (containing 22% of rebaudioside A, 68% of stevioside and 3% of rebaudioside C in percentages by mass). The lactase from Aspergillus niger (ATCC® 9029™) is added to reach an enzyme concentration of 100 U/g stevioside for reaction at 30° C. for 2 h.

[5] = biological target: T2, lactase (Lactozym 3000 L HP-G) from Kluyveromyces lactis (Kluyveromyces lactis, UniProt P00723); experiment: Hydrolysis of stevioside in Stevia sugar by commercial lactase, HPLC; assay type: biochemical; conditions: Stevia sugar 450 g/L, pH5 buffer; 100 U/g stevioside; 30° C., 2 h
T2 construct: purchased Novozymes Lactozym 3000 L HP-G
T2 sequence (P00723 whole entry): as the sequence (P00723 whole entry) above
Procedure: as §2, with “lactase (trade name: Lactozym 3000 L HP-G, purchased” for “lactase”, “Novozymes company in China) from Kluyveromyces lactis” for “Aspergillus niger (ATCC® 9029™)”

[6] = biological target: T3, lactase (Lactozym Pure 7500 L) (Kluyveromyces lactis, UniProt P00723); experiment: as above; assay type: biochemical; conditions: Stevia sugar 450 g/L, pH5 buffer; 100 U/g stevioside; 30° C., 2 h
T3 construct: purchased Novozymes Lactozym Pure 7500 L
T3 sequence (P00723 whole entry): as above
Procedure: as §2, with “lactase (Lactozym Pure 7500 L, purchased” for “lactase”, “Novozymes company in China)” for “Aspergillus niger (ATCC® 9029™)”

C=C1C[C@@]23CC[C@H]4[C@@](C)(CCC[C@@]4(C)C(=O)O[C@@H]4O[C@H](CO)[C@@H](O)[C@H](O)[C@H]4O)[C@@H]2CC[C@]1(O[C@@H]1O[C@H](CO)[C@@H](O)[C@H](O[C@@H]2O[C@H](CO)[C@@H](O)[C@H](O)[C@H]2O)[C@H]1O[C@@H]1O[C@H](CO)[C@@H](O)[C@H](O)[C@H]1O)C3 [rebaudioside A]
reaction of rebaudioside A with lactase ([1]; 10 g/L rebaudioside A, 100 U/g rebaudioside A, 30° C., 24 h): did not react | reaction of rebaudioside A with lactase in mixture with stevioside ([1]; 50 wt % rebaudioside A + 50 wt % stevioside, 200 U/g stevioside, 2 h (FIG. 4A)): does not react | n-butyl alcohol/water partition coefficients [2]: 0.09

C=C1C[C@@]23CC[C@H]4[C@@](C)(CCC[C@@]4(C)C(=O)O[C@@H]4O[C@H](CO)[C@@H](O)[C@H](O)[C@H]4O)[C@@H]2CC[C@]1(O[C@@H]1O[C@H](CO)[C@@H](O)[C@H](O)[C@H]1O)C3 [rubusoside]
n-butyl alcohol/water partition coefficients [2]: 3.5

C=C1C[C@@]23CC[C@H]4[C@@](C)(CCC[C@@]4(C)C(=O)O[C@@H]4O[C@H](CO)[C@@H](O)[C@H](O)[C@H]4O)[C@@H]2CC[C@]1(O[C@@H]1O[C@H](CO)[C@@H](O)[C@H](O)[C@H]1O[C@@H]1O[C@H](CO)[C@@H](O)[C@H](O)[C@H]1O)C3 [stevioside]
conversion of stevioside ([3]; 2 h): not converted | product of the reaction of stevioside ([3]; 20 h): steviolbioside is produced | conversion rate of stevioside ([1]; 50% stevioside + 50% rebaudioside A, 200 g/L, 200 U/g stevioside, 35° C., 2 h): 99.5% | conversion rate of stevioside ([1]; 200 g/L stevioside (97%) solution, 90 U/g stevioside, 35° C., 2 h): 98.9% | conversion rate of stevioside ([1]; Stevia mother liquor glycosides 100 g/L (19% stevioside), 30 U/g stevioside, 25° C., 0.5 h): 72.7% | conversion rate of stevioside ([1]; Stevia sugar 250 g/L (68% stevioside), 60 U/g stevioside, 35° C., 2 h): 98.3% | conversion rate of stevioside ([1]; Stevia sugar 250 g/L (68% stevioside), 150 U/g stevioside, 35° C., 24 h): 99.5% | content of stevioside in the reaction mixture [4]: no change | n-butyl alcohol/water partition coefficients ([2]; n-butyl alcohol/water): 0.36 | conversion of stevioside [5]: not converted | conversion of stevioside [6]: not converted

rebaudioside C
n-butyl alcohol/water partition coefficients [2]: 0.2
